Test results taken from patent US4010264A, “7-[3-Substituted isoxazol-5-yl]-acetamido-cephalosporanic acids and their anti-bacterial use” (Koninklijke Nederlandsche Gist-en Spiritusfabriek N.V., priority 1970, dated 1977).
In brackets after ≈: the same amount, converted by molar mass. Structures can show the parent of a compound that is named as a salt. Where two headings read alike, the source gives them in different places.

Columns and labels:
[1] = system: Staphylococcus aureus A55; assay: MIC, agar serial dilution test; type: cell-based
Brucella melitensis A488 = assay: microbe, parasite or virus in culture; type: cell-based; conditions: A488, 24 h
[2] = system: Klebsiella pneumoniae A809; assay: MIC, agar serial dilution test; type: cell-based
[3] = system: Staphylococcus aureus A321; assay: MIC, agar serial dilution test; type: cell-based
[4] = system: Staphylococcus aureus A355 (penicillinase-producing); assay: MIC, agar serial dilution test; conditions: 24 h
[5] = system: Streptococcus faecalis L 80; assay: MIC, agar serial dilution test; type: cell-based; conditions: Enterococcus faecalis
[6] = system: Diplococcus pneumoniae L 54; assay: MIC, agar serial dilution test; type: cell-based; conditions: Streptococcus pneumoniae
[7] = system: Streptococcus haemolyticus A266; assay: MIC, agar serial dilution test; type: cell-based
[8] = system: Bacillus subtilis ATCC 6633; assay: MIC, agar serial dilution test; type: cell-based
[9] = system: Pasteurella multocida A723; assay: MIC, agar serial dilution test; type: cell-based
[10] = system: Staphylococcus aureus L160a (penicillinase-producing); assay: MIC, agar serial dilution test; conditions: 24 h
[11] = Staphylococcus aureus A55, 24 hours at 37° C, read-out: MIC
[12] = Klebsiella pneumoniae A809, 24 hours at 37° C, read-out: MIC
[13] = Staphylococcus aureus A321, 24 hours at 37° C, read-out: MIC
[14] = L80, Streptococcus faecalis L 80, 24 hours at 37° C, read-out: MIC
[15] = L54, Diplococcus pneumoniae L 54, 24 hours at 37° C, read-out: MIC
[16] = Streptococcus haemolyticus A266, 24 hours at 37° C, read-out: MIC
[17] = ATCC6633, Bacillus subtilis ATCC 6633, 24 hours at 37° C, read-out: MIC
[18] = Pasteurella multocida A723, 24 hours at 37° C, read-out: MIC
[19] = Staphylococcus aureus, A55, 24 h
[20] = Klebsiella pneumoniae, A809, 24 h
[21] = Staphylococcus aureus, A321, 24 h
[22] = Bacillus subtilis, ATCC6633, 24 h
[23] = Pasteurella multocida, A723, 24 h

SMILES | MIC [1, 11] [µg/mL] | MIC (Brucella melitensis A488) [µg/mL] | MIC [2, 12] [µg/mL] | MIC [3, 13] [µg/mL] | MIC [4] [µg/mL] | MIC [5, 14] [µg/mL] | MIC [6, 15] [µg/mL] | MIC [7, 16] [µg/mL] | MIC [8, 17] [µg/mL] | MIC [9, 18] [µg/mL] | MIC [10] [µg/mL] | MIC [1, 19] [µg/mL] | MIC [2, 20] [µg/mL] | MIC [3, 21] [µg/mL] | MIC ([5]; L80, 24 h) [µg/mL] | MIC ([6]; L54, 24 h) [µg/mL] | MIC ([7]; Streptococcus, A266, 24 h) [µg/mL] | MIC [8, 22] [µg/mL] | MIC [9, 23] [µg/mL]
CC1(C)SC2C(NC(=O)C(NC(=O)OCc3ccc([N+](=O)[O-])cc3)c3cc(-c4c(Cl)cccc4Cl)no3)C(=O)N2C1C(=O)O (stereo not drawn) [Example XVII, 6-{-α-p-nitro-benzyloxycarbonylamino-[3-(2,6-dichloro)phenylisoxazol-5-yl]acetamido}penicillanic acid] | 1 (≈ 1.5 µM) | 25 (≈ 37.6 µM) | > 100 | 1 (≈ 1.5 µM) | 12.5 (≈ 18.8 µM) | 3 (≈ 4.51 µM) | 0.5 (≈ 0.752 µM) | 0.06 (≈ 0.0903 µM) | 0.5 (≈ 0.752 µM) | 50 (≈ 75.2 µM) | 6 (≈ 9.03 µM) | – | – | – | – | – | – | – | –
CC1(C)SC2C(NC(=O)C(N)c3cc(-c4c(Cl)cccc4Cl)no3)C(=O)N2C1C(=O)O (stereo not drawn) [Example XVIII, 6-{α-amino-[3-(2,6-dichloro)phenyl-isoxazol-5-yl]acetamido} penicillanic acid] | 0.25 (≈ 0.515 µM) | 0.5 (≈ 1.03 µM) | > 100 | 0.12 (≈ 0.247 µM) | 12.5 (≈ 25.8 µM) | 1 (≈ 2.06 µM) | 0.12 (≈ 0.247 µM) | < 0.015 | 0.06 (≈ 0.124 µM) | 6 (≈ 12.4 µM) | 12.5 (≈ 25.8 µM) | – | – | – | – | – | – | – | –
CC1(C)SC2C(NC(=O)Cc3onc(-c4c(Cl)cccc4Cl)c3C#N)C(=O)N2C1C(=O)O (centres unmarked) [Example XV, Sodium salt of 6-{[3-(2,6-dichloro)phenyl-4-cyano-isoxazol-5-yl]acetamido}penicillanic acid] | 0.5 | 6 | > 100 | 1 | 12.5 | 0.5 | 0.03 | 0.06 | 0.25 | 12.5 | 12.5 | – | – | – | – | – | – | – | –
CC(=O)OCC1=C(C(=O)O)N2C(=O)C(NC(=O)Cc3cc(C(C)(C)C)no3)C2SC1 (centres unmarked) [XXXIV, sodium 7-[3-(t-butyl)isoxazole-5-ylacetamido]-3-acetoxymethyl 3-cephem-4-carboxylate] | – | – | 12.5 | 1.5 | 1.5 | 12.5 | 0.25 | – | 0.75 | 3 | – | – | – | – | – | – | – | – | –
CC(=O)OCC1=C(C(=O)[O-])N2C(=O)C(NC(=O)Cc3onc(C)c3Cl)[C@H]2SC1.[Na+] (some centres unmarked) [XXXV, Sodium 7{[3-methyl-4-chloroisoxazole-5 yl]acetamido}-3-acetoxymethyl-3-cephem-4carboxylate] | – | 0.06 | – | – | 0.5 | – | – | – | – | – | 0.5 | 0.25 | 1.5 | 0.25 | 25 | 1 | 0.06 | 0.06 | 0.75
CCOc1ccc2ccccc2c1C(=O)N[C@@H]1C(=O)N2[C@@H]1SC(C)(C)[C@@H]2C(=O)O [Nafcilline, Nafcillin, reference compound] | 0.12 (≈ 0.29 µM) | 6 (≈ 14.5 µM) | 12.5 (≈ 30.2 µM) | 0.25 (≈ 0.603 µM) | 1 (≈ 2.41 µM) | 10 (≈ 24.1 µM) | 0.06 (≈ 0.145 µM) | 0.015 (≈ 0.0362 µM) | 0.5 (≈ 1.21 µM) | 12.5 (≈ 30.2 µM) | 0.5 (≈ 1.21 µM) | – | – | – | – | – | – | – | –
CC1=C(C(=O)O)N2C(=O)[C@@H](NC(=O)[C@H](N)c3ccccc3)[C@H]2SC1 [Cephalexine, Cephalexin, reference compound] | – | 6 (≈ 17.3 µM) | – | – | 12.5 (≈ 36 µM) | – | – | – | – | – | 12.5 (≈ 36 µM) | 3 (≈ 8.64 µM) | 3 (≈ 8.64 µM) | 1.5 (≈ 4.32 µM) | 100 (≈ 288 µM) | 3 (≈ 8.64 µM) | 0.25 (≈ 0.72 µM) | 0.5 (≈ 1.44 µM) | 3 (≈ 8.64 µM)
Cc1cc(C)c(-c2cc(CC(=O)NC3C(=O)N4C3SC(C)(C)C4C(=O)O)on2)c(C)c1 (centres unmarked) [VI, Sodium salt of 6-{[3-(2,4,6-trimethyl)phenylisoxazol-5-yl]acetamido}penicillanic acid] | 0.06 | 3 | 100 | 0.06 | 3 | 0.25 | 0.03 | 0.012 | 0.03 | 12.5 | 0.5 | – | – | – | – | – | – | – | –
CC1=C(C(=O)O)N2C(=O)C(NC(=O)Cc3onc(-c4c(C)cc(C)cc4C)c3C)C2SC1 (centres unmarked) [XIII, Sodium salt of 7-{[3-(2,4,6-trimethyl)phenyl-4-phenyl-methyl-isoxazol-5-yl]acetamido}desacetoxycephalosporanic acid] | 3 | > 100 | > 100 | 1.5 | 6 | 100 | 1.5 | 0.6 | 1 | > 100 | 6 | – | – | – | – | – | – | – | –
